The target in the test is T1, TEC (Homo sapiens, UniProt P42680).
T1 construct: purchased Reaction Biology Corporation
T1 sequence (P42680 1-631): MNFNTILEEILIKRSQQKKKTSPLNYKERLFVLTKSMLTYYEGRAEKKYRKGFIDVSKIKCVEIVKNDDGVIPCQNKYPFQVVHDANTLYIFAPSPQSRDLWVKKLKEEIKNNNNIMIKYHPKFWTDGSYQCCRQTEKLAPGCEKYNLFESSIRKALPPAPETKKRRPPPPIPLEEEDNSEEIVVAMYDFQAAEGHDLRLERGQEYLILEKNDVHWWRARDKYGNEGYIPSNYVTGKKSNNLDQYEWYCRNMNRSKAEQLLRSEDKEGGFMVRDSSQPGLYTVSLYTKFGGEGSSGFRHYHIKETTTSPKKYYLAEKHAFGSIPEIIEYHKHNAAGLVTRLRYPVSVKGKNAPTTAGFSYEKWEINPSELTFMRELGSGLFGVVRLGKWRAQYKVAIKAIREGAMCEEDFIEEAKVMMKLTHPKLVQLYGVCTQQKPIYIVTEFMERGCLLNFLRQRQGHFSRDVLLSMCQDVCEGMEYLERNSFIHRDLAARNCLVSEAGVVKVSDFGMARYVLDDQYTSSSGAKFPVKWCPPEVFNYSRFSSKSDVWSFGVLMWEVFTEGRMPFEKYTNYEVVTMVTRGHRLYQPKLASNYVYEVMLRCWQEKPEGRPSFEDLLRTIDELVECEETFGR
Put plainly: HotSpot kinase enzymatic assay, TEC. It counts as biochemical. The procedure: Therefore, efforts have focused on developing new compounds with good selectivity profiles. […] Compound 8 was selective against BTK. The biochemical activities of compound 8 differed among TEC family kinases. […] The inhibitory potential of compound 8 differed between members of the EGFR family. […] The inhibitory activity of compound 8 against JAK3 was also low.
Kinase enzymatic assays for BTK, BMX, TXK, TEC, ITK, EGFR, ERBB2, ERBB4, and JAK3 were performed at Reaction Biology Corporation (www.reactionbiology.com, Malvern, PA, USA) using the HotSpot assay platform. Briefly, specific kinase/substrate pairs and the required cofactors were prepared in a reaction buffer comprising 20 mM HEPES (pH 7.5), 10 mM MgCl2, 1 mM EGTA, 0.02% Brij35, 0.02 mg/mL BSA, 0.1 mM Na3VO4, 2 mM DTT, and 1% DMSO. The compounds were added to the reaction mixture and allowed to incubate. Approximately 20 min later, a mixture of ATP (Sigma-Aldrich, St. Louis, MO, USA) and ^33P ATP (PerkinElmer, Waltham, MA, USA) was added to the reaction mixture at a final concentration of 10 μM. The reactions were performed at room temperature for 120 min; subsequently, the reactions were spotted onto P81 ion exchange filter papers (Whatman Inc., Maidstone, UK). Any unbound phosphate was removed by thoroughly washing the filter papers with 0.75% phosphoric acid. […]

Consider `C=CC(=O)O[C@H]1Cc2cc3ccc(=O)oc3cc2OC1(C)C` [Compound 8, (7S)-(+)-Acrylic acid, 8,8-dimethyl-2-oxo-6,7-dihydro-2H,8H-pyrano [3,2-g]chromen-7-yl ester], for which the “inhibitory activity against TEC (in words)” value is given as “moderate activity”. The inhibition at 10 µM (10 µM, mean of two experiments) was found to be 54.5%.

As usually defined, the inhibition is the drop in the measured response relative to a control, in per cent. A high value points to a strong effect.
